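Where inhibition never reached the appropriate level, the endpoint shown equals the highest concentration tested. Otherwise, values were interpolated linearly from a five-concentration, 48-hour dose response in 96-well plates. GI50: concentration for 50% inhibition of growth. TGI is the concentration that stops growth completely.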
Tests used:
Assay in all cases: NCI tumour cell line growth inhibition, 48 h
[1] = test system: MDA-MB-435
[2] = test system: SN12C renal
[3] = test system: RPMI-8226 leukemia
[4] = test system: SF-539 CNS
[5] = test system: HCC-2998 colon
[6] = test system: SK-MEL-5 melanoma
[7] = test system: HCT-116 colon
[8] = test system: HCT-15 colon

SMILES | GI50 [1] | TGI [1] | GI50 [2] | TGI [2] | GI50 [3] | TGI [3] | GI50 [4] | TGI [4] | GI50 [5] | TGI [5] | GI50 [6] | TGI [6] | GI50 [7] | TGI [7] | GI50 [8] | TGI [8]
O=c1cc(N/N=C/c2ccc(F)cc2)c2cc(Cl)ccc2[nH]1 | 13.4 µM | > 100 µM | 23.8 µM | > 100 µM | 17 µM | > 100 µM | 23.6 µM | 78.2 µM | 32.4 µM | > 100 µM | 3.54 µM | 14.1 µM | 17.4 µM | > 100 µM | 19.9 µM | > 100 µM
CC1=Nc2ccccc2/C1=C\c1c(C)[nH]c2ccccc12 |  | 26.7 µM |  | 72.5 µM |  | 88.1 µM |  | 77.3 µM |  | 30.1 µM |  | 28.1 µM |  | 24.2 µM |  | 31.5 µM
CSCCCNC(=O)c1ccc2c(c1)/C(=C/c1[nH]c(C)cc1C)C(=O)N2 | 0.856 µM | > 100 µM | 0.571 µM | > 100 µM | 1.68 µM | > 100 µM | 0.734 µM | > 100 µM | 4.95 µM | > 100 µM | 1.57 µM | > 100 µM | 0.548 µM | > 100 µM | 0.44 µM | > 100 µM
O=c1[nH]c2nc(NC3CCOCC3)ncc2cc1Oc1ccc(F)cc1F | > 25 µM | > 25 µM | > 25 µM | > 25 µM | > 25 µM | > 25 µM | > 25 µM | > 25 µM | > 25 µM | > 25 µM | > 25 µM | > 25 µM | > 25 µM | > 25 µM | > 25 µM | > 25 µM
COc1ccc(C(=O)NNc2nc(Cl)nc(N3CCN(C(c4ccccc4)c4ccccc4)CC3)n2)cc1 | 3.58 µM | 13 µM | 1.71 µM | 3.19 µM | 33.7 µM | > 100 µM | 1.73 µM | 3.21 µM | 1.49 µM | 2.89 µM | 16.7 µM | 31.7 µM | 1.74 µM | 3.22 µM |  | 
C=CC(=O)Nc1cc(N2CCN(CC)CC2)ccc1Nc1cc(N(C)C(=O)Nc2c(Cl)c(OC)cc(OC)c2Cl)ncn1 | 3.47 µM | 14.4 µM | 2.84 µM | 9.72 µM | 2.37 µM | 7.22 µM | 3.53 µM | 15.2 µM | 2.49 µM | 6.3 µM | 11.3 µM | 23.9 µM | 3.37 µM | 14.2 µM | 6.25 µM | 21.3 µM
O=C(Oc1ccc(CO[N+](=O)[O-])cc1)c1ccccc1 | 0.157 µM | 0.307 µM | 0.216 µM | 0.701 µM | 0.0912 µM | 0.33 µM | 0.153 µM | 0.287 µM | 0.201 µM | 0.447 µM | 0.474 µM | 1.73 µM | 0.101 µM | 0.241 µM | 0.172 µM | 0.358 µM
Cc1cc(O)c(C2=NN(c3ccc(S(N)(=O)=O)cc3)C(c3ccc(Cl)cc3)C2)c(C)c1Cl (stereo not given) | 3.57 µM | 14.8 µM | 5.71 µM | 19.2 µM | 3.99 µM | 17.8 µM | 12.3 µM | 24.7 µM | 6.48 µM | 19.1 µM | 9.59 µM | 21.4 µM | 3.47 µM | 12.9 µM | 5.48 µM | 20.8 µM
C=C1C(=O)OC2CC(C)C3CC(O)OC(OCC)C3(C)CC12 (stereo not given) |  | 37.6 µM |  | 33.2 µM |  | 51 µM |  | 35.4 µM |  | 30.6 µM |  | 31.7 µM |  | 26 µM |  | 21.3 µM
Cc1cc(N=C2C=C(Br)C(=O)C(Br)=C2)cc(CN(CC(=O)O)CC(=O)O)c1O |  | > 100 µM |  | > 100 µM |  | > 100 µM |  | > 100 µM |  | > 100 µM |  | > 100 µM |  | > 100 µM |  | > 100 µM
COC(=O)C1=C(C(=O)OC)C2(C)C=CC1O2 (stereo not given) |  | 33.2 µM |  | 31.3 µM |  | 4.04 µM |  | 33 µM |  | 29.8 µM |  | 32.8 µM |  | 22.3 µM |  | 29.7 µM
OCc1ccc(-c2cscc2-c2ccc(CO)o2)o1 | > 100 µM | > 100 µM | > 100 µM | > 100 µM | 28.4 µM | > 100 µM | > 100 µM | > 100 µM | 24.2 µM | > 96.6 µM | 16.2 µM | > 100 µM | 1.65 µM | > 69.5 µM | > 80.1 µM | > 100 µM
C1=C2CCCC3=Cc4ccccc4OC23Oc2ccccc21 | 1.64 µM | 4.68 µM | 4.42 µM | > 100 µM | 3.38 µM | 15 µM | 1.92 µM | 5.01 µM | 10.3 µM | 60.7 µM | 3.37 µM | 24.2 µM | 4.35 µM | > 100 µM | 3.68 µM | > 100 µM
C#Cc1nc2ccccc2c(=O)[nH]1 | 0.51 µM | 2.13 µM | 0.331 µM | 1.26 µM | 0.213 µM | 0.635 µM | 0.345 µM | 1.42 µM | 1.6 µM | 3.11 µM | 0.633 µM | 2.01 µM | 0.247 µM | 0.716 µM | 0.224 µM | 0.644 µM
c1cncc(CNCc2cccnc2)c1 |  | > 100 µM |  | > 100 µM |  | > 100 µM |  | > 100 µM |  |  |  | > 100 µM |  | > 100 µM |  | > 100 µM
CC(C)(C)OC(=O)NCCCn1c2c(c3ccccc3c1=O)C(=O)c1ccccc1-2 | > 100 µM | > 100 µM | 24.8 µM | > 100 µM |  |  | 10.3 µM | 29.3 µM |  |  | 35.2 µM | > 100 µM | 4.71 µM | 17.8 µM | > 100 µM | > 100 µM
Cc1nc2c(n1C)C(=O)c1ccccc1C2=O | 48.1 µM | > 100 µM | 49.4 µM | > 100 µM | > 100 µM | > 100 µM | 85.5 µM | > 100 µM | 67.6 µM | > 100 µM | 22 µM | 85.2 µM | 40 µM | > 100 µM | 53.6 µM | > 100 µM
